This is an account of results in patent publication US8883782B2, “Spiro-tetracyclic ring compounds as beta-secretase modulators and methods of use” (Amgen Inc., priority 2010, dated 2014).

Experiment [1] has as its system Aβ40 in conditioned medium of cells stably expressing Amyloid Precursor Protein (APP). The experiment in a line: In vitro BACE cell-based assay (Aβ40 in conditioned medium, sandwich ELISA). As to conditions: Homo sapiens, read-out: HEK cell assay. Summed up: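 Secreted Aβ40 is captured with pAb40 and detected with biotinylated 6E10, read by europium time-resolved fluorescence. IC50 comes from percent inhibition versus concentration.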
A general note: ELISA stands for enzyme-linked immunosorbent assay.

In experiment [2] the test system is Abeta 40 in cerebrospinal fluid (CSF) and brain. The experiment in a line: In vivo inhibition of beta-secretase (Abeta 40 reduction in CSF and brain). Conditions: rat, after 4 hrs; for inhibition in vivo at 3 mg/kg: Abeta 40, 3 mpk; for inhibition in vivo at 10 mg/kg: Abeta 40, 10 mg/kg (10 mpk).
The target of experiment [3] is Beta Secretase enzyme (BACE) (Homo sapiens, UniProt P56817). Briefly: In vitro enzymatic BACE FRET (fluorescence resonance energy transfer) assay. The experiment is classed as biochemical. As to conditions: average IC50, enzyme assay; read-out: BACE 1 FRET assay. Summed up:
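Cleavage of a 50 nM fluorophore/quencher peptide FRET substrate by BACE for 1 h in 0.05 M acetate pH 4.2, 10% DMSO, 100 uM genapol. Reaction stopped with Tris to neutral pH before fluorescence reading.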

Where [4] appears, read: CSF, read-out: CSF A-beta reduction % at 10 mg/kg.
The mark [5] stands for this setting: brain, read-out: Brain A-beta reduction % at 10 mg/kg.

Each structure is given as a SMILES string. Like-named read-outs stand apart in the source and are kept apart here.

Beta Secretase enzyme (BACE), sequence (P56817 46-501, species assumed): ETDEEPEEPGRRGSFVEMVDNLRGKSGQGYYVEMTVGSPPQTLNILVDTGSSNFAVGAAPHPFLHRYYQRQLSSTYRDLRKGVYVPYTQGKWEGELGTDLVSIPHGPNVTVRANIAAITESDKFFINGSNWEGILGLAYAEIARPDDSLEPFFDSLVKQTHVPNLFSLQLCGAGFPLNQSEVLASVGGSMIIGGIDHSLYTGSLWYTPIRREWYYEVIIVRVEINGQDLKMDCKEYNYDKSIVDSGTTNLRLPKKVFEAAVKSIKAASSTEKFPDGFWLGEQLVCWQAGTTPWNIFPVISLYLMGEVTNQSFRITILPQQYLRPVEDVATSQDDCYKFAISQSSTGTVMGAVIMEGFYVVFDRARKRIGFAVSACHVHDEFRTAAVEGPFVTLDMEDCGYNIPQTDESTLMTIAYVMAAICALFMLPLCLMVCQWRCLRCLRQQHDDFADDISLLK

With `CC1(C)C=C(c2cc3c(c(F)n2)Oc2ccc(-c4cccnc4F)cc2[C@@]32CSC(N)=N2)CCO1` [Example 1033, (S)-3-(6,6-dimethyl-3,6-dihydro-2H-pyran-4-yl)-1-fluoro-7-(2-fluoropyridin-3-yl)-5′H-spiro[chromeno[2,3-c]pyridine-5,4′-thiazol]-2′-amine], the IC50 in experiment [1] (HEK293, average IC50) stood at 563 nM; in experiment [3] it was 108 nM. The inhibition in vivo at 3 mg/kg amounted to 60% in experiment [2] (CSF, read-out: CSF A-beta reduction % at 3 mpk) and 52% in experiment [2] (brain, read-out: Brain A-beta reduction % at 3 mpk).

With `Cc1cnc(-c2cc(F)c3c(c2)[C@]2(COC(N)=N2)c2cc(-c4cccnc4F)ccc2O3)nc1` [Example 226, (S)-4′-fluoro-7′-(2-fluoropyridin-3-yl)-2′-(5-methylpyrimidin-2-yl)-5H-spiro[oxazole-4,9′-xanthen]-2-amine], the IC50 in experiment [1] (HEK293, average IC50) was determined as 27.2 nM; in experiment [3], 3.9 nM. Moreover, the inhibition in vivo at 10 mg/kg came to 31% in experiment [2] (setting [4]) and 19% in experiment [2] (setting [5]).

Turning to `NC1=N[C@@]2(CS1)c1cc(-c3cccnc3F)ccc1Oc1c(F)cc(N3CCC(F)(F)C3)cc12` [Example 1077, (S)-2′-(3,3-difluoropyrrolidin-1-yl)-4′-fluoro-7′-(2-fluoropyridin-3-yl)-5H-spiro[thiazole-4,9′-xanthen]-2-amine], the IC50 in experiment [1] (HEK293, average IC50) came out at 9 nM; in experiment [3], 0.3 nM. The figures for the inhibition in vivo at 10 mg/kg in experiment [2] (setting [4]) and in experiment [2] (setting [5]) were 69% and 53%, respectively.

As for `NC1=N[C@@]2(CO1)c1cc(-c3cccnc3)ccc1Oc1c2cc(N2CCC(F)(F)C2)nc1F` [Example 916, (S)-3-(3,3-difluoropyrrolidin-1-yl)-1-fluoro-7-(pyridin-3-yl)-5′-H-spiro[chromeno[2,3-c]pyridine-5,4′-oxazol]-2′-amine], the IC50 in experiment [1] (HEK293, average IC50, HEK cells) worked out at 5 nM; in experiment [3], 0.4 nM. Besides, the inhibition in vivo at 10 mg/kg in experiment [2] (setting [4]) worked out at 61%; in experiment [2] (setting [5]) it was 44%.
